From patent EP0749962B1, “6-substituted-1,2,3,4-tetrahydro-9H-carbazoles and 7-substituted-10H-cyclohepta(7,6-B)indoles” (ELI LILLY AND COMPANY, priority 1995, dated 1996)
pKi: −log10 of the molar value. Structures can show the parent of a compound that is named as a salt. Where two headings read alike, the source gives them in different places.

Key:
[1] = biological target: T1, 5-HT1F receptor (Homo sapiens, UniProt P30939); assay: [3H]5-HT radioligand binding to the cloned 5-HT1F receptor (membranes of transfected Ltk- cells)
T1 construct: expressed in transfected cells; host or cells: Ltk- cells (mouse fibroblasts)
T1 sequence (P30939 1-366): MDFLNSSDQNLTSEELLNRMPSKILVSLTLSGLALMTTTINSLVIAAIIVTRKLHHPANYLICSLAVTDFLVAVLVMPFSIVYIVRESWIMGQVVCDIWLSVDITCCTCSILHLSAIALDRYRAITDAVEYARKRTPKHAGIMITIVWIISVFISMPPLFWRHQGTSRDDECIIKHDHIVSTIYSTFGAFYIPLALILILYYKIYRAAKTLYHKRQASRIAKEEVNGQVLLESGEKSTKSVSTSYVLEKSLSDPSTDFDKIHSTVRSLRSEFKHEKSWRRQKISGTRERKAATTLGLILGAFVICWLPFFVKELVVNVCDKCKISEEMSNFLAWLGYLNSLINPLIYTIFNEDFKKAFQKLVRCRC
Experimental: Membrane Preparation: Membranes were prepared from transfected Ltk- cells which were grown to 100% confluency. The cells were washed twice with phosphate-buffered saline, scraped from the culture dishes into 5 mL of ice-cold phosphate-buffered saline, and centrifuged at 200 x g for 5 minutes at 4°C. The pellet was resuspended in 2.5 mL of ice-cold Tris buffer (20 mM Tris HCl, pH=7.4 at 23°C, 5 mM EDTA) and homogenized with a Wheaton tissue grinder. The lysate was subsequently centrifuged at 200 x g for 5 minutes at 4°C to pellet large fragments which were discarded. The supernatant was collected and centrifuged at 40,000 x g for 20 minutes at 4°C. The pellet resulting from this centrifugation was washed once in ice-cold Tris wash buffer and resuspended in a final buffer containing 50 mM Tris HCl and 0.5 mM EDTA, pH=7.4 at 23°C. Membrane preparations were kept on ice and utilized within two hours for the radioligand binding assays.
Saturation studies were conducted using [^3H]5-HT at 12 different concentrations ranging from 0.5 nM to 100 nM. […] The binding profile of drugs in competition experiments was accomplished using 10-12 concentrations of compound. Incubation times were 30 minutes for both saturation and displacement studies based upon initial investigations which determined equilibrium binding conditions. Nonspecific binding was defined in the presence of 10 µM 5-HT. Binding was initiated by the addition of 50 µL membrane homogenates (10-20 µg). The reaction was terminated by rapid filtration through presoaked (0.5% poylethyleneimine) filters using 48R Cell Brandel Harvester (Gaithersburg, MD). Subsequently, filters were washed for 5 seconds with ice cold buffer (50 mM Tris HCl, pH=7.4 at 4°C), dried and placed into vials containing 2.5 mL Readi-Safe (Beckman, Fullerton, CA) and radioactivity was measured using a Beckman LS 5000TA liquid scintillation counter. The efficiency of counting of [^3H]5-HT averaged between 45-50%. Binding data was analyzed by computer-assisted nonlinear regression analysis (Accufit and Accucomp, Lunden Software, Chagrin Falls, OH).

[2] = biological target: T2, 5-HT1Dα (Homo sapiens, UniProt P28221); assay: [3H]5-HT radioligand binding to the cloned 5-HT1Dα receptor
T2 construct: expressed in transfected cells
T2 sequence (P28221 whole entry): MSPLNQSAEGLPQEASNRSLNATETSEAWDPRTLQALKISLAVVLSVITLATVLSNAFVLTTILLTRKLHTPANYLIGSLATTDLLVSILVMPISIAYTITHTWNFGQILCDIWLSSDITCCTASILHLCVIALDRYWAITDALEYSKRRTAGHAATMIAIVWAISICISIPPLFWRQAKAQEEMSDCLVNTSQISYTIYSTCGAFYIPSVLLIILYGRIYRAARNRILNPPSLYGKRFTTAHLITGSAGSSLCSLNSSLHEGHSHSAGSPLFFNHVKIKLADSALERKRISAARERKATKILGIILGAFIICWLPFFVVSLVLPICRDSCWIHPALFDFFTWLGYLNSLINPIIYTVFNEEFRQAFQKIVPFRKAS

[3] = biological target: 5-HT1Dβ (Homo sapiens, UniProt P28222); assay: [3H]5-HT radioligand binding to the cloned 5-HT1Dβ receptor
Chain of 5-HT1Dβ (P28222 whole entry): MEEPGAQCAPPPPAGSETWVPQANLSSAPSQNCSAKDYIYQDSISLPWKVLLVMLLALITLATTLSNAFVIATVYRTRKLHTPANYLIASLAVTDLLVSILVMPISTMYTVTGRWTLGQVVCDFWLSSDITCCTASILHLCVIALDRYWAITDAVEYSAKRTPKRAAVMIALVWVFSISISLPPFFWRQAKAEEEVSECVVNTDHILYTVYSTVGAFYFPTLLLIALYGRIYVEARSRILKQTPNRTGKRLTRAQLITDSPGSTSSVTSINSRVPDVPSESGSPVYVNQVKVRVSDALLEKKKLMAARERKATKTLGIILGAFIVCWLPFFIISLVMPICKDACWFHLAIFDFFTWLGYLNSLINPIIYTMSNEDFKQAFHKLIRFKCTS

[4] = biological target: T3, 5-HT1E (Homo sapiens, UniProt P28566); assay: [3H]5-HT radioligand binding to the cloned 5-HT1E receptor
T3 construct: expressed in transfected cells
T3 sequence (P28566 whole entry): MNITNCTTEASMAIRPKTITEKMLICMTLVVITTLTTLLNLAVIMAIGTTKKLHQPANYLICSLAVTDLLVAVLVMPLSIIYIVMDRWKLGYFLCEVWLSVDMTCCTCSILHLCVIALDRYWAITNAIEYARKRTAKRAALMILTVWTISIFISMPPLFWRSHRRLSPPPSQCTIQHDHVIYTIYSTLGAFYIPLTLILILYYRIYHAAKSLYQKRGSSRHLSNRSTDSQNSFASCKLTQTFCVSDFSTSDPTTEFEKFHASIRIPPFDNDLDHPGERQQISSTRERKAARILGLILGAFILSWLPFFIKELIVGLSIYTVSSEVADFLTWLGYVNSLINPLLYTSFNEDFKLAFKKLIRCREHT

[5] = test system: neuronal protein extravasation; assay: Neuronal (dural) protein extravasation after electrical stimulation of the trigeminal ganglion; format: in vivo, Harlan Sprague-Dawley rats or guinea pigs; conditions: 10 minutes before trigeminal ganglion stimulation, ID50 approximated from dose-response curve, species of the table not stated (rats or guinea pigs)
Experimental: Harlan Sprague-Dawley rats (225-325 g) or guinea pigs from Charles River Laboratories (225-325 g) were anesthetized with sodium pentobarbital intraperitoneally (65 mg/kg or 45 mg/kg respectively) and placed in a stereotaxic frame (David Kopf Instruments) with the incisor bar set at -3.5 mm for rats or -4.0 mm for guinea pigs. Following a midline sagital scalp incision, two pairs of bilateral holes were drilled through the skull (6 mm posteriorly, 2.0 and 4.0 mm laterally in rats; 4 mm posteriorly and 3.2 and 5.2 mm laterally in guinea pigs, all coordinates referenced to bregma). Pairs of stainless steel stimulating electrodes (Rhodes Medical Systems, Inc.) were lowered through the holes in both hemispheres to a depth of 9 mm (rats) or 10.5 mm (guinea pigs) from dura.
The femoral vein was exposed and a dose of the test compound was injected intravenously (1 mL/kg). Approximately 7 minutes later, a 50 mg/kg dose of Evans Blue, a fluorescent dye, was also injected intravenously. The Evans Blue complexed with proteins in the blood and functioned as a marker for protein extravasation. […]
A fluorescence microscope (Zeiss) equipped with a grating monochromator and a spectrophotometer was used to quantify the amount of Evans Blue dye in each sample. An excitation wavelength of approximately 535 nm was utilized and the emission intensity at 600 nm was determined. […] This facilitated the computer-controlled movement of the stage with fluorescence measurements at 25 points (500 µm steps) on each dural sample. The mean and standard deviation of the measurements was determined by the computer.
The extravasation induced by the electrical stimulation of the trigeminal ganglion was an ipsilateral effect (i.e. occurs only on the side of the dura in which the trigeminal ganglion was stimulated). […] The ratio of the amount of extravasation in the dura from the stimulated side compared to the unstimulated side dura was calculated. […]

[6] = cloned receptor, [3H]5-HT displacement, 37°C

Structure (SMILES)	pKi [1, 6]	pKi [2, 6]	pKi [3, 6]	pKi [4, 6]	Inhibition of Protein Extravasation i.v. ID50 [5] [mmol/kg]	pKi [1]	pKi [2]	pKi [3]	pKi [4]
Cn1cc(CCN2CCC(c3c[nH]c4ccc(F)cc34)CC2)cn1 [Compound II, 5-fluoro-3-<1-<2-<1-methyl-1H-pyrazol-4-yl>ethyl>-4-piperidinyl>-1H-indole hydrochloride]	8.60	7.66	7.27	7.30	8.6e-10	–	–	–	–
O=C(O)C(=O)O.Oc1ccc2[nH]cc(C3CCNCC3)c2c1 [Compound III, 5-hydroxy-3-(4-piperidinyl)-1H-indole oxalate]	–	–	–	–	8.9e-09	7.66	6.79	6.71	8.41
CCN(CC)C1CCc2cccc(Cl)c2C1 (stereo not shown) [Compound IV, 8-chloro-2-diethylamino-1,2,3,4-tetrahydronaphthalene hydrochloride]	–	–	–	–	–	6.89	7.87	6.84	6.09
CN(C)C1CCc2[nH]c3ccc(O)cc3c2C1 (stereo not shown) [Compound V, 6-hydroxy-3-dimethylamino-1,2,3,4-tetrahydrocarbazole]	7.99	–	–	7.13	8.7e-09	–	6.10	5.77	–
